In patent publication US11571418B2, “Platinum compounds that inhibit constitutive STAT3 signaling and induce cell cycle arrest and apoptosis of malignant cells” (H. LEE MOFFITT CANCER CENTER AND RESEARCH INSTITUTE, INC., priority 2011, dated 2023):

System: constitutively-active Stat3 in NIH3T3/v-Src
Test: Constitutive Stat3 DNA-binding activity in treated NIH3T3/v-Src cells (EMSA of nuclear extracts)
Format: cell-based, mouse
Method: FIGS. 3A-3D. Inhibition of Stat3-mediated gene expression by PLATINUM-401. (FIG. 3A) and (FIG. 3B) v-Src-transformed mouse fibroblasts that stably express Stat3-dependent (NIH3T3/v-Src/pLucTKS3) and Stat3-independent (NIH3T3/v-Src/pRLSRE) luciferase reporters or β-galactosidase (β-gal), as well as normal mouse fibroblast (NIH3T3) transiently transfected with pLucTKS3, pGL2-VEGF-Luc, NFkB-Luc or pLucSRE together with or without v-Src were treated with or without PLATINUM-401 for 48 h. Cytosolic extracts were then prepared from cells for luciferase and […] activities measurements. Values are the means and S.D. of three to five independent assays; (FIG. 3C) and (FIG. 3D) Nuclear extracts or whole cell lysates were prepared from IL-6-stimulated normal mouse fibroblasts (NIH3T3) or their v-Src-transformed counterpart (NIH3T3/v-Src) that are treated with or without PLATINUM-401 for different times. Samples of equal total proteins were then subjected to in vitro DNA-binding activity and EMSA analysis or for SDS-PAGE and Western blot analysis for phosphorylated and total Stat3.
Nuclear extract preparation and gel shift assays—Nuclear extract preparation from NIH3T3 stimulated by rhIL-6, NIH3T3/hEGFR stimulated by rhEGF, v-Src-transformed fibroblasts (NIH3T3/v-Src) or tumor cell lines and electrophoretic mobility shift assay were carried out as previously described (Turkson et al., 1998; Garcia et al., 1997; Yu et al., 1995). The ^32P-labeled oligonucleotide probes used are hSIE (high affinity sis-inducible element from the c-fos gene, m67 variant, 5′-[…]) (SEQ ID NO:1) that binds Stat1 and Stat3 (Garcia et al., 1997; Wagner et al., 1990) and MGFe (mammary gland factor element from the bovine β-casein gene promoter, 5′-AGATTTCTAGGAATTCAA) (SEQ ID NO:2) for Stat1 and Stat5 binding (49,50). Except where indicated, inhibitor compound was pre-incubated with the nuclear extract for 30 min at room temperature prior to incubation with radiolabeled probe.
To further investigate the activities of PLATINUM-401, the inventors treated malignant cells and measured effects on Stat3 signaling. […] Taken together with the results in FIG. 1, these findings indicate that PLATINUM-401 blocks the binding of activated Stat3 to its responsive elements in the promoters of target genes. Moreover, in a time- and dose-dependent manner, PLATINUM-401 inhibits the constitutive or ligand-induced activation of Stat3 DNA-binding activity (FIG. 3C), as well as tyrosine phosphorylation in mouse fibroblasts (FIG. 3D and data not shown). […] Changes in Stat3 protein levels were minimal. […] Results together indicate that at the 5-10 μM PLATINUM-401 that inhibits intracellular Stat3 signaling, there is no observable non-specific effect on non-Stat3 related pathways investigated here.
To further elucidate the interaction between Stat3 and PLATINUM-401, v-Src-transformed mouse fibroblasts were transfected with Stat3 protein and then used to investigate PLATINUM-401 activity. The transfection of wild-type Stat3 into the v-Src-transformed fibroblasts results in higher Stat3 DNA-binding activity over that of parentals, as measured by in vitro DNA-binding activity and EMSA analysis (FIG. 7C, left panel, lanes 3 and 6 versus 1 and 2). This is due to the increased expression of Stat3 protein and the consequent phosphorylation by oncogenic Src tyrosine kinase that is present in these cells.

SMILES: CC(O)CN1CCN(CC(C)O)CC1 (centres unmarked) [PLATINUM-401]
- constitutively-active Stat3 DNA-binding activity, cells transfected with wild-type Stat3 (NIH3T3/v-Src transfected with exogenous wild-type Stat3, 5 μM, 36 h): no significant reduction
- time required for significant inhibition of constitutively-active Stat3 (NIH3T3/v-Src, data not shown): > 12 h
- concentration that inhibits intracellular Stat3 signaling (mouse fibroblasts): 5 to 10 µM
- constitutively-active Stat3 DNA-binding activity, mock-transfected cells (parental, mock-transfected NIH3T3/v-Src, 5 μM, 36 h): significant reduction
- constitutive activation of Stat3 DNA-binding activity (time- and dose-dependent): inhibits
